Measurements taken from patent publication US4264765A, “Salts of erythromycin A esters” (priority 1980, dated 1981).
Where two headings read alike, the source gives them in different places.

Test system: Staph, Aureus (Smith)
Test: standard test using mice infected with Staph, Aureus (Smith), subcutaneous treatment
Format: in vivo
Details: Staphylococcus aureus, sc, pH 7.4, read-out: CD 50, mice, subcutaneous, isotonic or pH 7.4 buffered aqueous solution
Description: The above compounds were tested per their antibacterial uses in a standard test, using mice infected with Staph, Aureus (Smith). […] The compounds of the above examples were administered subcutaneously as isotonic solutions or aqueous solutions buffered to a pH of 7.4.

[1] = inoculation (b): LD50 of 100-1000
[2] = inoculation (a): LD50 of 10-100

SMILES	ED50 [1] [mg/kg]	ED50 [2] [mg/kg]	also measured
CCOC(=O)CCC(=O)O[C@H]1[C@H](O[C@@H]2[C@@H](C)[C@H](O[C@H]3C[C@@](C)(OC)[C@@H](O)[C@H](C)O3)[C@@H](C)C(=O)O[C@H](CC)[C@@](C)(O)[C@H](O)[C@@H](C)C(=O)[C@H](C)C[C@@]2(C)O)O[C@H](C)C[C@@H]1[N+](C)(C)COC(=O)c1ccccc1 [Example 5, 2'-ethylsuccinyl-N-benzoyloxymethyl erythromycin A iodide]			ED50 (LD 50 column prints 100): 52 mg/kg
CC[C@H]1OC(=O)[C@H](C)[C@@H](O[C@H]2C[C@@](C)(OC)[C@@H](O)[C@H](C)O2)[C@H](C)[C@@H](O[C@@H]2O[C@H](C)C[C@H]([N+](C)(C)COC(=O)C(C)(C)C)[C@H]2OC(=O)CCCC(=O)O)[C@](C)(O)C[C@@H](C)C(=O)[C@H](C)[C@@H](O)[C@]1(C)O [Example 12, 2'-glutaryl-N-pivalyloxymethyl erythromycin A chloride]	73		
CCOC(=O)CCC(=O)O[C@H]1[C@H](O[C@@H]2[C@@H](C)[C@H](O[C@H]3C[C@@](C)(OC)[C@@H](O)[C@H](C)O3)[C@@H](C)C(=O)O[C@H](CC)[C@@](C)(O)[C@H](O)[C@@H](C)C(=O)[C@H](C)C[C@@]2(C)O)O[C@H](C)C[C@@H]1[N+](C)(C)COC(=O)CC [Example 7, 2'-ethylsuccinyl-N-propionyloxymethyl erythromycin A iodide]			ED50 (LD 50 column prints 100): 24 mg/kg
CCC(=O)O[C@H]1[C@H](O[C@@H]2[C@@H](C)[C@H](O[C@H]3C[C@@](C)(OC)[C@@H](O)[C@H](C)O3)[C@@H](C)C(=O)O[C@H](CC)[C@@](C)(O)[C@H](O)[C@@H](C)C(=O)[C@H](C)C[C@@]2(C)O)O[C@H](C)C[C@@H]1[N+](C)(C)COC(=O)C(C)(C)C [Example 1, 2'-propionyl-N-pivalyloxymethylerythromycin A iodide]		88	
CCC(=O)O[C@H]1[C@H](O[C@@H]2[C@@H](C)[C@H](O[C@H]3C[C@@](C)(OC)[C@@H](O)[C@H](C)O3)[C@@H](C)C(=O)O[C@H](CC)[C@@](C)(O)[C@H](O)[C@@H](C)C(=O)[C@H](C)C[C@@]2(C)O)O[C@H](C)C[C@@H]1[N+](C)(C)COC(=O)c1ccccc1 [Example 4, 2'-propionyl-N-benzoyloxymethyl erythromycin A chloride]	40		
CCOC(=O)CCC(=O)O[C@H]1[C@H](O[C@@H]2[C@@H](C)[C@H](O[C@H]3C[C@@](C)(OC)[C@@H](O)[C@H](C)O3)[C@@H](C)C(=O)O[C@H](CC)[C@@](C)(O)[C@H](O)[C@@H](C)C(=O)[C@H](C)C[C@@]2(C)O)O[C@H](C)C[C@@H]1[N+](C)(C)COC(=O)C(C)(C)C [Example 3, 2'-ethylsuccinyl-N-pivalyloxymethyl erythromycin A chloride]		58	
CCOC(=O)CCC(=O)O[C@H]1[C@H](O[C@@H]2[C@@H](C)[C@H](O[C@H]3C[C@@](C)(OC)[C@@H](O)[C@H](C)O3)[C@@H](C)C(=O)O[C@H](CC)[C@@](C)(O)[C@H](O)[C@@H](C)C(=O)[C@H](C)C[C@@]2(C)O)O[C@H](C)C[C@@H]1[N+](C)(C)COC(=O)C(C)(C)C [Example 2, 2'-ethylsuccinyl-N-pivalyloxymethylerythromycin A iodide]	143		
CC[C@H]1OC(=O)[C@H](C)[C@@H](O[C@H]2C[C@@](C)(OC)[C@@H](O)[C@H](C)O2)[C@H](C)[C@@H](O[C@@H]2O[C@H](C)C[C@H]([N+](C)(C)COC(=O)C(C)(C)C)[C@H]2OC(=O)CCC(=O)O)[C@](C)(O)C[C@@H](C)C(=O)[C@H](C)[C@@H](O)[C@]1(C)O [Example 10, 2'-succinyl-N-pivalyloxymethyl erythromycin A chloride]		37	
CCOC(=O)CCC(=O)O[C@H]1[C@H](O[C@@H]2[C@@H](C)[C@H](O[C@H]3C[C@@](C)(OC)[C@@H](O)[C@H](C)O3)[C@@H](C)C(=O)O[C@H](CC)[C@@](C)(O)[C@H](O)[C@@H](C)C(=O)[C@H](C)C[C@@]2(C)O)O[C@H](C)C[C@@H]1[N+](C)(C)COC(=O)CCCCCC(=O)O [Example 14, 2'-ethylsuccinyl-N-pimelyloxymethyl erythromycin chloride]		47	
